In US20210380545A1, “(S)-ENANTIOMERIC FORM OF A HETEROCYCLIC COMPOUND HAVING MOTIVATION IMPROVING AND/OR REFERENCE MEMORY ENHANCING ACTIVITY” (Red Bull GmbH, priority 2018, published 2021):
pIC50: −log10 of the molar value. Where two headings read alike, the source gives them in different places.

Legend:
[1] = biological target: T1, human nor-epinephrine transporter (NET) (Homo sapiens, UniProt P23975); test: Reuptake inhibition assay, [3H]MPP+ uptake in HEK-NET cells; format: cell-based; details: HEK293 cells expressing human NET, 0.05 μM [3H]MPP+, 3 min
T1 construct: expressed in transfected cells

[2] = biological target: T2, human serotonin transporter (SERT) (Homo sapiens, UniProt P31645); test: Reuptake inhibition assay, [3H]5-HT uptake in HEK-SERT cells; format: cell-based; details: HEK293 cells expressing human SERT, 0.4 μM [3H]5-HT, 1 min
T2 construct: expressed in transfected cells

Male Sprague-Dawley rats = test: Holeboard test (reference memory index, RMI); format: in vivo, rat
Procedure: Male Sprague-Dawley rats (17 to 18 weeks and 22 to 23 months old), bred and maintained in the Core Unit of Biomedical Research, Division of Laboratory Animal Science and Genetics, Medical University of Vienna were used. The animals were transferred to a separate experimental room one week before the start of the experimental procedure and kept there throughout the experiment individually in standard Makrolon cages filled with autoclaved woodchips temperature: 22±2° C.; humidity: 55±5%; 12 h artificial light/12 h dark cycle: light on at 7:00 am). The study was carried out according to the guidelines of the Ethics committee, Medical University of Vienna, and were approved by the Federal Ministry of Education, Science and Culture, Austria.
The holeboard (1 m×1 m) was made of black plastic and was surrounded by translucent plexiglass walls. The walls were equipped with spatial cues. Distal cues were provided by room structures outside the board. Four out of sixteen regularly arranged holes (diameter and depth 7 cm) were baited (dustless precision pellets, 45 mg, Bioserv®). The pattern of baited holes remained the same during the entire test. To avoid olfactory orientation pellets were also present in an area below the board. Prior to the experiment for three days the rats were handled for 15 min to get familiarized to the experimenter, followed by two days of habituation to the hole-board during which the animals could explore the maze for 15 min each day with access to food pellets. The weight of each rat was reduced by food restriction to reach 85% of its initial body weight before the start of the experiment. Tap water was given ad libitum. Rats were trained for three days (five trials on day one, four trials on day 2 and a retention trial at day 3). Every trial lasted for 120 s or until all four pellets were found. The apparatus was cleaned with 0.1% Incidin® (Ecolab, Dusseldorf, Germany) between trials to remove odor cues. The interval between two successive trials for an individual was 20 min. A camera mounted on the room ceiling recorded the performance of the rats in the maze. […] To compare rats with similar levels of motivation, rats with less than 40-hole visits in total over the ten trials were excluded from the analysis. Reference memory errors were noted as the number of visits to the unbaited holes. The Reference Memory Index (RMI) was calculated using the formula (first+revisits of baited holes)/total visits of all holes. All behavioral training/testing was performed during the light phase of the light-dark cycle.

[3] = test system: Adult male Sprague-Dawley rats; details: for chow intake vs vehicle treatment / lever pressing vs vehicle treatment: TBZ 1.0 mg/kg plus vehicle vs vehicle/vehicle
Procedure: Rats were assessed using the fixed ratio 5/chow feeding choice test.
Adult male Sprague-Dawley rats (Envigo Sprague Dawley, Indianapolis, Ind., USA; weights 275-299 g upon arrival) were pair-housed in a colony maintained at 23° C., with a 12-h light/dark cycle (lights on 07:00). Rats were food deprived to 85% of their free-feeding body weight for operant training and allowed modest growth throughout the experiment. Water was available ad libitum in the home cages.
Behavioural sessions were conducted in operant chambers (28×23×23 cm3; Med Associates, Fairfax, Vt.) with 30 minute sessions 5 days/week. Rats were initially trained to lever press on a continuous reinforcement FR1 schedule (high-carbohydrate 45 mg pellets, Bio-Serv, Frenchtown, N.J.) and then shifted to the FR5 schedule. After 5 weeks of training on the FR5 schedule, chow was introduced. Weighed amounts of laboratory chow (Laboratory Diet, 5P00 Prolab RMH 3000, Purina Mills, St. Louis, Mo.; typically 15-20 g) were concurrently available on the floor of the chamber during the FR5/chow feeding choice task sessions. At the end of each 30 minute session, rats were immediately removed from the chambers, number of lever presses was recorded, and the amount of chow consumed was determined by weighing the remaining food (including spillage). Rats were trained on the FR5/chow feeding choice procedure for 5 weeks, after which drug testing began. On baseline and drug treatment days, rats consumed all of the operant pellets that were delivered during each session.
The DMSO/Tween 80/saline solution was administered as the vehicle control. TBZ was obtained from Tocris Bioscience (Ellisville, Mo.) and was dissolved in DMSO, 0.9% saline, and titrated with HCl. The DMSO/saline solution was administered as the vehicle control. The TBZ dose was 1.0 mg/kg.
The experiment used a within-groups design, with each rat receiving each drug treatment in a randomly varied order (one treatment per week, with none of the treatment sequences repeated across different animals).
Total number of lever presses and gram quantity of chow intake from the 30 minute sessions were analysed using repeated measures ANOVA. […] When there was a significant ANOVA, non-orthogonal planned comparisons were performed, using the overall error term to assess differences between each treatment and the control condition.

[4] = biological target: T3, human dopamine transporter (DAT) (Homo sapiens, UniProt Q01959); test: Reuptake inhibition assay, [3H]-dopamine uptake in HEK-DAT cells; format: cell-based
T3 construct: expressed in transfected cells

[5] = HEK293 cells expressing human DAT, 0.2 μM [3H]-dopamine, 1 min, read-out: IC50, inhibition of DAT-mediated dopamine reuptake
[6] = p<0.001, listed as Tetrabenazine

T3 sequence (Q01959 whole entry): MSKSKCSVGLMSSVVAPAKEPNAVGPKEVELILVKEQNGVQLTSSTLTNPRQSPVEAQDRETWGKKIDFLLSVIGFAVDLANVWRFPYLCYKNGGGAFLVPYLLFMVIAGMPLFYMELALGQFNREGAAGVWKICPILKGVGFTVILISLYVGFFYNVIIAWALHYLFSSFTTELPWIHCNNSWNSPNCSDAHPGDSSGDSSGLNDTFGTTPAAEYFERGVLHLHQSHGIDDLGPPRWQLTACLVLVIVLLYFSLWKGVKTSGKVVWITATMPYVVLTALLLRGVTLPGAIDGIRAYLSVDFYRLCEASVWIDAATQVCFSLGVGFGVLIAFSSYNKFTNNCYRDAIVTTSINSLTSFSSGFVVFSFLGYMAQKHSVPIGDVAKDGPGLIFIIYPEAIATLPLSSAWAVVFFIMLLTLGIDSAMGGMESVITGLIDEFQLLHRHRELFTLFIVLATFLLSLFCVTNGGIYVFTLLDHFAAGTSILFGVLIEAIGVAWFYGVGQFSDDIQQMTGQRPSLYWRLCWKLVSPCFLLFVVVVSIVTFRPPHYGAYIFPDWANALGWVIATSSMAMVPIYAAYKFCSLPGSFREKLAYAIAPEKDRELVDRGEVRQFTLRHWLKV
T2 sequence (P31645 whole entry): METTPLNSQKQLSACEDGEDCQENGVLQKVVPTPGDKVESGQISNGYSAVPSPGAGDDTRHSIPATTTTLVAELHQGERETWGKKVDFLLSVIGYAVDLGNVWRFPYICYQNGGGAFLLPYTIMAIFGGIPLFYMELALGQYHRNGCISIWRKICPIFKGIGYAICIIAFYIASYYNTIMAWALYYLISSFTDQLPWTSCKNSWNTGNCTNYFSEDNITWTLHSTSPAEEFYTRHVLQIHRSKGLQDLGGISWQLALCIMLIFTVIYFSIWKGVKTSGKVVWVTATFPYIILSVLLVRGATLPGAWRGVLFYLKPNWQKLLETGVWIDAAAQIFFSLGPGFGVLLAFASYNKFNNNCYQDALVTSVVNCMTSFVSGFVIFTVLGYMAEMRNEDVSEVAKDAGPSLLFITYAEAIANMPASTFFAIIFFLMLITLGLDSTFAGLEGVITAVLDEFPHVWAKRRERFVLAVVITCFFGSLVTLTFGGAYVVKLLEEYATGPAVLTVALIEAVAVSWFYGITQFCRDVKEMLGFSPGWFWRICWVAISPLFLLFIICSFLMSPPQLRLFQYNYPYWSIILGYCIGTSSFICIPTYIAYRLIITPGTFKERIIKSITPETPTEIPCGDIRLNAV
T1 sequence (P23975 whole entry): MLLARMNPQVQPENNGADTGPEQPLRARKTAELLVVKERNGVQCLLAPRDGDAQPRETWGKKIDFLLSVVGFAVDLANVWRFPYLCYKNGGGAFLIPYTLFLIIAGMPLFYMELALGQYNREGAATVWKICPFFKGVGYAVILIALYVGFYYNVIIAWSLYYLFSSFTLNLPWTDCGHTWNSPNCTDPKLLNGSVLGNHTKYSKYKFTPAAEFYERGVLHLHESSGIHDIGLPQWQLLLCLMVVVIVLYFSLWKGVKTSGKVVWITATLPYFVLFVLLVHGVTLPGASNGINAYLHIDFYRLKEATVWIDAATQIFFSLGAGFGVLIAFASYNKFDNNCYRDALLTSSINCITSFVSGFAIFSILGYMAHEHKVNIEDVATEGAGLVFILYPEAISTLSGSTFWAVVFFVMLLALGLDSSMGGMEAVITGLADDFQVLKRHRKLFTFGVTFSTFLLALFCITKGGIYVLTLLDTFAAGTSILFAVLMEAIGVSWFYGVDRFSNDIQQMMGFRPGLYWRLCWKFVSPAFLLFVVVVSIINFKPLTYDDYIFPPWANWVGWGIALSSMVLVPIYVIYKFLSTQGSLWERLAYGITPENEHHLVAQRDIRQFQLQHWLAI

[O-][S@@+](Cc1cncs1)C(c1ccccc1)c1ccccc1 [Compound C1, (S)-5((diphenylmethanesulfinyl)-methyl-1,3-thiazole)]
inhibition of NET [1]: negligible | inhibition of SERT [2]: negligible | Reference Memory Index (RMI) vs controls, entire training (Male Sprague-Dawley rats; old male rats (22 to 23 months), 10 mg/kg body weight, Tukey post hoc p=0.021): significantly enhanced RMI | Reference Memory Index (RMI) vs controls, entire training (Male Sprague-Dawley rats; old male rats, 1 mg, p=0.357): performed similar as compared to controls | Reference Memory Index (RMI) vs controls, entire training (Male Sprague-Dawley rats; old male rats, 5 mg, p=0.171): performed similar as compared to controls | RMI vs vehicle, day 1 (Male Sprague-Dawley rats; old male rats, 10 mg, day 1, p=0.032): significantly enhanced RMI | RMI vs vehicle, day 2 (Male Sprague-Dawley rats; old male rats, 10 mg, day 2, p<0.001): significant treatment effect | RMI vs controls, retention trial at day 3 (Male Sprague-Dawley rats; old male rats, 10 mg, day 3, p=0.003): higher RMI | effect on TBZ-induced increase of chow intake ([3]; 24.0 mg/kg with TBZ 1.0 mg/kg vs TBZ/vehicle, 30 minute session, p<0.001): significantly attenuated the effects of TBZ | effect on TBZ-induced decrease of lever pressing ([3]; 24.0 mg/kg with TBZ 1.0 mg/kg vs TBZ/vehicle, 30 minute session, p<0.01): significantly attenuated the effects of TBZ | reversal of the effort-related effects of tetrabenazine ([3]; highest dose (24.0 mg/kg) co-administered with TBZ 1.0 mg/kg): partially but significantly reversed the effects of tetrabenazine | pIC50 [4]: 5.55

[O-][S+](Cc1cncs1)C(c1ccccc1)c1ccccc1 (racemic) [Compound C3, 5-(diphenylmethanesulfinylmethyl)-1,3-thiazole]
pIC50 [4, 5]: 5.34

COc1cc2c(cc1OC)C1CC(=O)C(CC(C)C)CN1CC2 (stereo not drawn) [TBZ, 9,10-dimethoxy-3-(2-methylpropyl)-1,3,4,6,7, 11b-hexahydrobenzo[a]quinolizin-2-one]
chow intake vs vehicle treatment ([3]; p<0.001): significantly increased chow intake | lever pressing vs vehicle treatment ([3]; p<0.001): significantly decreased lever pressing | chow intake vs vehicle treatment [3, 6]: increased chow intake | lever pressing vs vehicle treatment [3, 6]: decreased lever pressing

[O-][S@+](Cc1cncs1)C(c1ccccc1)c1ccccc1 [Compound C2, (R)-5-(diphenylmethanesulfinylmethyl)-1,3-thiazole]
pIC50 [4, 5]: 4.65
